# Laboratory results from ChEMBL document CHEMBL1138731, “Conversion of human-selective PPARalpha agonists to human/mouse dual agonists: a molecular modeling analysis” (Bioorg Med Chem Lett, 2004).
# Columns and labels:
# [1] = target: T1, Peroxisome proliferator-activated receptor alpha (Homo sapiens, UniProt Q07869); test: Transactivation activity for human Peroxisome proliferator activated receptor alpha
# T1 sequence (Q07869 whole entry): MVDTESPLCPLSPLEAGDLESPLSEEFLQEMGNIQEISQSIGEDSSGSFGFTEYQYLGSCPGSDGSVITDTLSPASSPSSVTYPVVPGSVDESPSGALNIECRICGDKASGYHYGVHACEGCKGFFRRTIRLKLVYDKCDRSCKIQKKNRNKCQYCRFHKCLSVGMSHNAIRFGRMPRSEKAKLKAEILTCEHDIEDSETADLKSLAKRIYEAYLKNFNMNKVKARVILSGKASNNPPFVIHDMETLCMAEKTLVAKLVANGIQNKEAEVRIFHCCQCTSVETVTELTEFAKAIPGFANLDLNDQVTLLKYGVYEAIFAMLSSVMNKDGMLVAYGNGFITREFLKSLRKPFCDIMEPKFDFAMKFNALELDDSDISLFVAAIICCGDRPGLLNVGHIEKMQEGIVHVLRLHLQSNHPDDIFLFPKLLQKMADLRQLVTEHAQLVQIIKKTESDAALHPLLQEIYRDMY
# [2] = target: T2, Peroxisome proliferator-activated receptor alpha (Mus musculus, UniProt P23204); test: In vitro inhibition of mouse Peroxisome proliferator activated receptor alpha
# T2 sequence (P23204 whole entry): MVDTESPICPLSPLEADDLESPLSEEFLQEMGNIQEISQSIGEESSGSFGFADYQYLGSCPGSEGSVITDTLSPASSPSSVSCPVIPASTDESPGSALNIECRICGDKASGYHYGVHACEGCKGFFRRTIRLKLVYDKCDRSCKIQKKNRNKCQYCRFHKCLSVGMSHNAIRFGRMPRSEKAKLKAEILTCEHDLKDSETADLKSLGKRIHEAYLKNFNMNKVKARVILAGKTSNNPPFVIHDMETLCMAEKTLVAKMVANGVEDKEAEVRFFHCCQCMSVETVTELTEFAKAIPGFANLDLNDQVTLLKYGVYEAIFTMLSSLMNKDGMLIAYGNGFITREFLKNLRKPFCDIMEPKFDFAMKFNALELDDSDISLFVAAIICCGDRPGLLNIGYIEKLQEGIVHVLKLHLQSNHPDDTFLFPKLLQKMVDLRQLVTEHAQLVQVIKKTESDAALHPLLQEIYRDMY
# [3] = target: T2, Peroxisome proliferator-activated receptor alpha; test: Transactivation activity for mouse Peroxisome proliferator activated receptor alpha
# [4] = target: T1, Peroxisome proliferator-activated receptor alpha; test: In vitro inhibition of human Peroxisome proliferator activated receptor alpha
# Mus musculus = test: Effect on level of triglyceride at a dose of 3 mg/kg in mice treated for 7 days; assay type: functional
SMILES,EC50 [1] [µM],IC50 [2] [µM],EC50 [3] [µM],IC50 [4] [µM],Triglyceride level (Mus musculus) [%]
Cc1oc(-c2ccccc2)nc1CCOc1ccc(CC(C)(Oc2ccc(C(C)(C)C)cc2)C(=O)O)cc1 (centres undefined),0.011,0.515,0.211,0.149,–
Cc1ccc(OC(C)(Cc2ccc(OCCc3nc(-c4cccc(-c5ccccc5)c4)oc3C)cc2)C(=O)O)cc1 (centres undefined),0.023,0.53,0.151,0.306,–
Cc1oc(-c2ccc(-c3ccccc3)cc2)nc1CCOc1ccc(CC(C)(Oc2ccccc2)C(=O)O)cc1 (centres undefined),–,7.02,2.34,–,–
Cc1oc(-c2ccc(-c3ccccc3)cc2)nc1CCOc1ccc(CC(C)(Oc2ccc(C(C)(C)C)cc2)C(=O)O)cc1 (centres undefined),0.26,0.7,1.17,–,–
Cc1ccc(OC(C)(Cc2ccc(OCCc3nc(-c4ccc(-c5ccccc5)cc4)oc3C)cc2)C(=O)O)cc1 (centres undefined),0.039,1.46,1.04,0.375,–
Cc1ccc(OC(C)(Cc2ccc(OCCc3nc(-c4ccccc4)oc3C)cc2)C(=O)O)cc1 (centres undefined),0.007,1.4,0.585,0.064,–
Cc1oc(-c2cccc(-c3ccccc3)c2)nc1CCOc1ccc(CC(C)(Oc2ccc(C(C)(C)C)cc2)C(=O)O)cc1 (centres undefined),0.049,0.146,0.091,0.133,~39
Cc1oc(-c2cccc(-c3ccccc3)c2)nc1CCOc1ccc(CC(C)(Oc2ccccc2)C(=O)O)cc1 (centres undefined),–,0.404,0.173,–,–
Cc1oc(-c2ccccc2)nc1CCOc1ccc(CC(C)(Oc2ccccc2)C(=O)O)cc1 (centres undefined),–,–,–,–,~56
